# From patent US11673889B2, “Substituted imidazo[4,5-c][1,8]naphthyridines as phosphodiesterase inhibitors” (Nanjing Zhengxiang Pharmaceuticals Co., Ltd., priority 2019, dated 2023)
# How the values were obtained:
# Pharmacokinetics in mice = type: in vivo; details: mouse, plasma, male CD-1 mice; for AUC / clearance / half-life / Vd: 1 mg/kg, iv; for Vd: read-out: Vdss
# Procedure, shortened: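 Male CD-1 mice (3 per group) dosed at 1 mg/kg IV bolus and 5 mg/kg oral gavage in 5% DMSO/40% PEG400/55% water. Jugular blood sampled from 0.033 (IV) or 0.083 (PO) up to 24 h. Plasma measured by LC/MS/MS, with PK parameters from non-compartmental analysis.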
# human soluble ENPP1 [1] = target: T1, human soluble ENPP1 (Homo sapiens, UniProt P22413); assay: ENPP1 activity assay using p-Nitrophenyl-5′-TMP as a substrate; type: biochemical
# T1 construct: 20 ng of human soluble ENPP1
# T1 sequence (P22413 103-925 limits assumed): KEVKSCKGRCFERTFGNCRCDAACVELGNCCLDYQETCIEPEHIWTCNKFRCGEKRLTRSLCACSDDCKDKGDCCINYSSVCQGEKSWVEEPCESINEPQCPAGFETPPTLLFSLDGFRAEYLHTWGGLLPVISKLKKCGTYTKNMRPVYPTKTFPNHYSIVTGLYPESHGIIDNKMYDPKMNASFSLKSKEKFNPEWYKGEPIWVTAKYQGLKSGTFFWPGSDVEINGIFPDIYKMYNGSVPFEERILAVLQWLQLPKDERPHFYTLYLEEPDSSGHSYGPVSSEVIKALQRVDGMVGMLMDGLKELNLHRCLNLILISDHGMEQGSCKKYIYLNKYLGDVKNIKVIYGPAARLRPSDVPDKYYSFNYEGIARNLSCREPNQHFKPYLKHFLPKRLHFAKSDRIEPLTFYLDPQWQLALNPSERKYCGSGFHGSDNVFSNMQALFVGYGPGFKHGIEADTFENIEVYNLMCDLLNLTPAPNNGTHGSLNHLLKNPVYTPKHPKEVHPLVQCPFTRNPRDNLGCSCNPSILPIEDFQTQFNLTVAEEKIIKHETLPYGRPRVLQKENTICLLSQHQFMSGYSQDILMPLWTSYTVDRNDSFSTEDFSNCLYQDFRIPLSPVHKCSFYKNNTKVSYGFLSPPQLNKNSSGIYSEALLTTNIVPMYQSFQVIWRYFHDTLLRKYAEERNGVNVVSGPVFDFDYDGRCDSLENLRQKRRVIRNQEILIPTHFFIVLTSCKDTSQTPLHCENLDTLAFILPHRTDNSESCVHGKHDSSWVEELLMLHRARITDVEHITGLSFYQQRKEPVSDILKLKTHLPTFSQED
# Procedure, shortened: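 Percent inhibition, set against uninhibited-enzyme and blank wells, was fitted to a four-parameter variable-slope model for IC50. Chromogenic read-out was p-nitrophenol released from TMP-pNP, added as a 2 mM […] solution for 1 h at RT. Before that, 20 ng soluble ENPP1 sat 30 min with compound.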
# [2] = test system: cGAMP activated THP-1 cells; assay: ENPP1 inhibitors screening on cGAMP activated THP-1 cells (IFN-β ELISA); type: cell-based; details: THP-1 cells with 2′3′-cGAMP, 24 hours, FIGS. 1A-1E
# Experimental: THP-1 cells from bulk cultures were counted and suspended in RPMI 1640, 20% FBS, 2.5 mM L-alanyl-L-glutamine at a concentration of 5.5×10^6 cells/mL. The THP-1 cells were subsequently seeded into 96 well round bottom plates 180 μL/well (1×10^6 cells per well), incubated for 1 hour at 37° C., 5% CO2.
# Test compounds were screened in triplicate on THP-1 cells at a final concentration of 10 μM. A working solutions at 0.2 mM. Each well contains 180 μL of THP-1 cell suspension, 10 μL (30 μM, 40 μM or 50 μM) 2′3′-cGAMP (InvivoGen, catalog #tlrl-nacga23) solution (600 μM, 800 μM or 1000 μM) and 10 μL test compound working solution. Incubate for 1 hour.
# Vehicle control wells contain 2′3′-cGAMP at concentrations of […] and 50 μM without any test compound. Positive control, 2′3′-cGAMP or 2′,3′-cGAM(PS)2 (Rp/Sp) (InvivoGen, cat #tlrl-nacga2srs) at 40 μM and 80 μM (final concentration).
# The final assay volume were 200 μL/well contains: 1) THP-1 cells=180 μL, 2) test compounds=10 μL, 3) 2′3′-cGAMP or 2′3′-cGAM(PS)2 (Rp/Sp) or vehicle control=10 μL.
# After incubation for 24 hours at 37° C., 5% CO2, the supernatants were harvested at 200×g for 10 minutes. Cell culture supernatants were then transferred to a clean plate and stored at −80° C. until ready to analyze for IFN-β levels. The IFN-β levels in cell culture supernatants were determined by ELISA kits (PBL Assay Science, catalog #41410) according to the manufacturer's instructions.
# The % increase measured for IFN-β in cells treated by the test compounds 12, 48, 89, 103 and 121 relative to that of untreated cells were tested (as shown in FIGS. 1A-1E).
# human soluble ENPP1 [3] = target: T1, human soluble ENPP1; assay: ENPP1 activity assay using p-Nitrophenyl-5′-AMP as a substrate; type: biochemical
# Procedure, shortened: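 Absorbance at 405 nm tracks p-nitrophenol from AMP-pNP hydrolysis after 1 h at room temperature, substrate added as 3 mM (2× final) following 30 min enzyme–compound preincubation. Enzyme: 35 ng human soluble ENPP1. IC50 fitted (variable-slope four-parameter) from percent inhibition normalized to max and blank.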
Compound,AUC (Pharmacokinetics in mice) [ng·h/mL],clearance (Pharmacokinetics in mice) [mL/min/kg],half-life (Pharmacokinetics in mice) [min],Vd (Pharmacokinetics in mice) [L/kg],IC50 (human soluble ENPP1 [1]) [nM],% increase measured for IFN-β relative to that of untreated cells [2],IC50 (human soluble ENPP1 [3]) [nM],bioavailability (Pharmacokinetics in mice; oral gavage (PO) at 5 mg/kg vs IV 1 mg/kg) [%]
"COc1ccc2c(ncc3nc(C)n(Cc4ccc(S(N)(=O)=O)cc4)c32)n1 [Compound 48, 4-((7-methoxy-2-methyl-1H-imidazo[4,5-c][1,8]naphthyridin-1-yl)methyl)benzenesulfonamide]",239,70,19.8,1.7,0.29,potently increased the IFN-β levels at very low concentrations,0.44,
"COc1ccc2c(n1)nc(C)c1nc(C)n(Cc3ccc(S(N)(=O)=O)cn3)c12 [Compound 89, 6-((7-methoxy-2,4-dimethyl-1H-imidazo[4,5-c][1,8]naphthyridin-1-yl)methyl)pyridine-3-sulfonamide]",656,26,32.4,0.8,0.52,potently increased the IFN-β levels at very low concentrations,2.1,
"COc1cc2ncc3ncn(Cc4ccc(S(N)(=O)=O)cn4)c3c2cc1OC [Compound 12, 6-((7,8-dimethoxy-1H-imidazo[4,5-c]quinolin-1-yl)methyl)pyridine-3-sulfonamide]",93,180,15,2.9,1.2,potently increased the IFN-β levels at very low concentrations,3.9,0
